Numbers after ± are expanded uncertainties.
How the values were obtained:
[1] = refractive index (Na D-line) (dimensionless); details: 101.33 kPa, Liquid, Standard Abbe refractometry
[2] = 101.33 kPa, Liquid, Vibrating tube method
[3] = relative permittivity at zero frequency (dimensionless); details: 101.33 kPa, Liquid, Parallel plate capacitor
[4] = refractive index (Na D-line) (dimensionless); xn = mol fraction of the nth substance listed; details: 101 kPa, Liquid, Standard Abbe refractometry
[5] = relative permittivity at zero frequency (dimensionless); xn = mol fraction of the nth substance listed; details: 101 kPa, Liquid, Parallel plate capacitor

Q: For `CCCCCO` [pentan-1-ol], which refractive index ([1]; 293.15 K) is on record?
A: 1.41001 ± 0.00053

Q: And the refractive index ([1]; 298.15 K)?
A: 1.4084 ± 0.0005

Q: What about the refractive index ([1]; 303.15 K) of the same compound?
A: 1.4065 ± 0.0005

Q: And the mass density ([2]; 288.15 K)?
A: 818.49 ± 0.31 kg/m3

Q: What about the mass density ([2]; 293.15 K) of the same compound?
A: 814.82 ± 0.31 kg/m3

Q: What about the mass density ([2]; 298.15 K) of the same compound?
A: 811.19 ± 0.31 kg/m3

Q: What about the mass density ([2]; 303.15 K) of the same compound?
A: 807.5 ± 0.31 kg/m3

Q: And the mass density ([2]; 308.15 K)?
A: 803.86 ± 0.31 kg/m3

Q: What about the “relative permittivity at zero frequency” value ([3]; 288.15 K) of the same compound?
A: 16.334 ± 0.98

Q: What about the “relative permittivity at zero frequency” value ([3]; 293.15 K) of the same compound?
A: 15.736 ± 0.94

Q: What about the “relative permittivity at zero frequency” value ([3]; 298.15 K) of the same compound?
A: 15.144 ± 0.91

Q: And the “relative permittivity at zero frequency” value ([3]; 303.15 K)?
A: 14.565 ± 0.87

Q: What about the “relative permittivity at zero frequency” value ([3]; 308.15 K) of the same compound?
A: 13.998 ± 0.84

Q: With `CCCCCO` [pentan-1-ol] + CCCCCCCC as the compound, how does the refractive index ([4]; 293.15 K, x1 = 0.1008) read?
A: 1.3981 ± 0.0005

Q: What about the refractive index ([4]; 293.15 K, x1 = 0.2034) of the same compound?
A: 1.3988 ± 0.0005

Q: And the refractive index ([4]; 293.15 K, x1 = 0.3004)?
A: 1.3997 ± 0.0005

Q: What about the refractive index ([4]; 293.15 K, x1 = 0.3808) of the same compound?
A: 1.4005 ± 0.0005

Q: What about the refractive index ([4]; 293.15 K, x1 = 0.4885) of the same compound?
A: 1.4019 ± 0.0005

Q: And the refractive index ([4]; 293.15 K, x1 = 0.593)?
A: 1.4033 ± 0.0005

Q: What about the refractive index ([4]; 293.15 K, x1 = 0.6992) of the same compound?
A: 1.4047 ± 0.0005

Q: What about the refractive index ([4]; 293.15 K, x1 = 0.7922) of the same compound?
A: 1.4063 ± 0.0005

Q: And the refractive index ([4]; 293.15 K, x1 = 0.8967)?
A: 1.4082 ± 0.0005

Q: And the refractive index ([4]; 298.15 K, x1 = 0.1008)?
A: 1.3965 ± 0.0005

Q: And the refractive index ([4]; 298.15 K, x1 = 0.2034)?
A: 1.3973 ± 0.0005

Q: And the refractive index ([4]; 298.15 K, x1 = 0.3004)?
A: 1.3982 ± 0.0005

Q: What about the refractive index ([4]; 298.15 K, x1 = 0.3808) of the same compound?
A: 1.3991 ± 0.0005

Q: What about the refractive index ([4]; 298.15 K, x1 = 0.4885) of the same compound?
A: 1.4004 ± 0.0005

Q: And the refractive index ([4]; 298.15 K, x1 = 0.593)?
A: 1.4019 ± 0.0005

Q: What about the refractive index ([4]; 298.15 K, x1 = 0.6992) of the same compound?
A: 1.4034 ± 0.0005

Q: What about the refractive index ([4]; 298.15 K, x1 = 0.7922) of the same compound?
A: 1.405 ± 0.0005

Q: What about the refractive index ([4]; 298.15 K, x1 = 0.8967) of the same compound?
A: 1.407 ± 0.0005

Q: What about the refractive index ([4]; 303.15 K, x1 = 0.1008) of the same compound?
A: 1.3937 ± 0.0005

Q: What about the refractive index ([4]; 303.15 K, x1 = 0.2034) of the same compound?
A: 1.3946 ± 0.0005

Q: What about the refractive index ([4]; 303.15 K, x1 = 0.3004) of the same compound?
A: 1.3955 ± 0.0005

Q: And the refractive index ([4]; 303.15 K, x1 = 0.3808)?
A: 1.3964 ± 0.0005

Q: What about the refractive index ([4]; 303.15 K, x1 = 0.4885) of the same compound?
A: 1.3979 ± 0.0005

Q: And the refractive index ([4]; 303.15 K, x1 = 0.593)?
A: 1.3993 ± 0.0005

Q: What about the refractive index ([4]; 303.15 K, x1 = 0.6992) of the same compound?
A: 1.4008 ± 0.0005

Q: And the refractive index ([4]; 303.15 K, x1 = 0.7922)?
A: 1.4026 ± 0.0005

Q: And the refractive index ([4]; 303.15 K, x1 = 0.8967)?
A: 1.4046 ± 0.0005

Q: What about the “relative permittivity at zero frequency” value ([5]; 288.15 K, x1 = 0.1008) of the same compound?
A: 2.104 ± 0.13

Q: And the “relative permittivity at zero frequency” value ([5]; 288.15 K, x1 = 0.2034)?
A: 2.331 ± 0.14

Q: And the “relative permittivity at zero frequency” value ([5]; 288.15 K, x1 = 0.3004)?
A: 2.766 ± 0.17

Q: And the “relative permittivity at zero frequency” value ([5]; 288.15 K, x1 = 0.3808)?
A: 3.405 ± 0.2

Q: And the “relative permittivity at zero frequency” value ([5]; 288.15 K, x1 = 0.4885)?
A: 4.798 ± 0.29

Q: What about the “relative permittivity at zero frequency” value ([5]; 288.15 K, x1 = 0.593) of the same compound?
A: 6.675 ± 0.4

Q: And the “relative permittivity at zero frequency” value ([5]; 288.15 K, x1 = 0.6992)?
A: 8.743 ± 0.53

Q: And the “relative permittivity at zero frequency” value ([5]; 288.15 K, x1 = 0.7922)?
A: 11.143 ± 0.67

Q: And the “relative permittivity at zero frequency” value ([5]; 288.15 K, x1 = 0.8967)?
A: 13.734 ± 0.82

Q: What about the “relative permittivity at zero frequency” value ([5]; 293.15 K, x1 = 0.1008) of the same compound?
A: 2.1 ± 0.13

Q: What about the “relative permittivity at zero frequency” value ([5]; 293.15 K, x1 = 0.2034) of the same compound?
A: 2.321 ± 0.14

Q: And the “relative permittivity at zero frequency” value ([5]; 293.15 K, x1 = 0.3004)?
A: 2.731 ± 0.16

Q: What about the “relative permittivity at zero frequency” value ([5]; 293.15 K, x1 = 0.3808) of the same compound?
A: 3.32 ± 0.2

Q: What about the “relative permittivity at zero frequency” value ([5]; 293.15 K, x1 = 0.4885) of the same compound?
A: 4.601 ± 0.28

Q: And the “relative permittivity at zero frequency” value ([5]; 293.15 K, x1 = 0.593)?
A: 6.358 ± 0.38

Q: And the “relative permittivity at zero frequency” value ([5]; 293.15 K, x1 = 0.6992)?
A: 8.332 ± 0.5

Q: What about the “relative permittivity at zero frequency” value ([5]; 293.15 K, x1 = 0.7922) of the same compound?
A: 10.654 ± 0.64

Q: And the “relative permittivity at zero frequency” value ([5]; 293.15 K, x1 = 0.8967)?
A: 13.179 ± 0.79

Q: And the “relative permittivity at zero frequency” value ([5]; 298.15 K, x1 = 0.1008)?
A: 2.096 ± 0.13

Q: And the “relative permittivity at zero frequency” value ([5]; 298.15 K, x1 = 0.2034)?
A: 2.312 ± 0.14

Q: What about the “relative permittivity at zero frequency” value ([5]; 298.15 K, x1 = 0.3004) of the same compound?
A: 2.699 ± 0.16

Q: What about the “relative permittivity at zero frequency” value ([5]; 298.15 K, x1 = 0.3808) of the same compound?
A: 3.243 ± 0.2

Q: And the “relative permittivity at zero frequency” value ([5]; 298.15 K, x1 = 0.4885)?
A: 4.421 ± 0.27

Q: And the “relative permittivity at zero frequency” value ([5]; 298.15 K, x1 = 0.593)?
A: 6.053 ± 0.36

Q: And the “relative permittivity at zero frequency” value ([5]; 298.15 K, x1 = 0.6992)?
A: 7.936 ± 0.48

Q: And the “relative permittivity at zero frequency” value ([5]; 298.15 K, x1 = 0.7922)?
A: 10.175 ± 0.61

Q: And the “relative permittivity at zero frequency” value ([5]; 298.15 K, x1 = 0.8967)?
A: 12.634 ± 0.76

Q: What about the “relative permittivity at zero frequency” value ([5]; 303.15 K, x1 = 0.1008) of the same compound?
A: 2.092 ± 0.13

Q: And the “relative permittivity at zero frequency” value ([5]; 303.15 K, x1 = 0.2034)?
A: 2.304 ± 0.14

Q: And the “relative permittivity at zero frequency” value ([5]; 303.15 K, x1 = 0.3004)?
A: 2.669 ± 0.16

Q: And the “relative permittivity at zero frequency” value ([5]; 303.15 K, x1 = 0.3808)?
A: 3.173 ± 0.19

Q: And the “relative permittivity at zero frequency” value ([5]; 303.15 K, x1 = 0.4885)?
A: 4.257 ± 0.26

Q: And the “relative permittivity at zero frequency” value ([5]; 303.15 K, x1 = 0.593)?
A: 5.774 ± 0.35

Q: What about the “relative permittivity at zero frequency” value ([5]; 303.15 K, x1 = 0.6992) of the same compound?
A: 7.559 ± 0.45

Q: What about the “relative permittivity at zero frequency” value ([5]; 303.15 K, x1 = 0.7922) of the same compound?
A: 9.712 ± 0.58

Q: And the “relative permittivity at zero frequency” value ([5]; 303.15 K, x1 = 0.8967)?
A: 12.103 ± 0.73

Q: And the “relative permittivity at zero frequency” value ([5]; 308.15 K, x1 = 0.1008)?
A: 2.088 ± 0.12

Q: And the “relative permittivity at zero frequency” value ([5]; 308.15 K, x1 = 0.2034)?
A: 2.297 ± 0.14

Q: What about the “relative permittivity at zero frequency” value ([5]; 308.15 K, x1 = 0.3004) of the same compound?
A: 2.643 ± 0.16

Q: And the “relative permittivity at zero frequency” value ([5]; 308.15 K, x1 = 0.3808)?
A: 3.111 ± 0.19

Q: And the “relative permittivity at zero frequency” value ([5]; 308.15 K, x1 = 0.4885)?
A: 4.109 ± 0.25

Q: And the “relative permittivity at zero frequency” value ([5]; 308.15 K, x1 = 0.593)?
A: 5.516 ± 0.33

Q: What about the “relative permittivity at zero frequency” value ([5]; 308.15 K, x1 = 0.6992) of the same compound?
A: 7.204 ± 0.43

Q: What about the “relative permittivity at zero frequency” value ([5]; 308.15 K, x1 = 0.7922) of the same compound?
A: 9.267 ± 0.56

Q: What about the “relative permittivity at zero frequency” value ([5]; 308.15 K, x1 = 0.8967) of the same compound?
A: 11.585 ± 0.69

Q: With `CCCCCCCC` [octane] as the compound, how does the refractive index ([1]; 293.15 K) read?
A: 1.3991 ± 0.0005

Q: And the refractive index ([1]; 298.15 K)?
A: 1.3967 ± 0.0005

Q: What about the refractive index ([1]; 303.15 K) of the same compound?
A: 1.3945 ± 0.0005

Q: And the mass density ([2]; 288.15 K)?
A: 706.81 ± 0.32 kg/m3

Q: What about the mass density ([2]; 293.15 K) of the same compound?
A: 702.77 ± 0.32 kg/m3

Q: What about the mass density ([2]; 298.15 K) of the same compound?
A: 698.73 ± 0.32 kg/m3

Q: What about the mass density ([2]; 303.15 K) of the same compound?
A: 694.7 ± 0.32 kg/m3

Q: What about the mass density ([2]; 308.15 K) of the same compound?
A: 690.67 ± 0.32 kg/m3

Q: And the “relative permittivity at zero frequency” value ([3]; 288.15 K)?
A: 1.975 ± 0.12

Q: What about the “relative permittivity at zero frequency” value ([3]; 293.15 K) of the same compound?
A: 1.968 ± 0.12

Q: And the “relative permittivity at zero frequency” value ([3]; 298.15 K)?
A: 1.961 ± 0.12

Q: What about the “relative permittivity at zero frequency” value ([3]; 303.15 K) of the same compound?
A: 1.954 ± 0.12

Q: What about the “relative permittivity at zero frequency” value ([3]; 308.15 K) of the same compound?
A: 1.947 ± 0.12
